Paper PMC9833666, “Designing and identifying β-hairpin peptide macrocycles with antibiotic potential” (Science Advances, 2023)
Like-named read-outs stand apart in the source and are kept apart here. Bridge positions count the residues as written; N and C are the ends. Ends that are not written are not given here. Peptide text beside a SMILES is read from it.

Legend:
Escherichia coli W3110 = assay type: cell-based; settings: for Ec W3110 MIC MH: E. coli W3110, MH medium; for Ec W3110 MIC RPMI: E. coli W3110, RPMI medium
Procedure: MICs were performed by a modifiedClinical and Laboratory Standards Institute) procedure. […] Separately, E. coli W3110 or A. baumannii AB5075 was grown overnight in 5 ml of standard MH at 37°C. Cells from these cultures were diluted to a concentration of 5 × 10^5 to 6 × 10^5 cells/ml in either standard MH, MHII, RPMI, or fetal bovine serum, and 90 μl was added to each well of the 96-well plate containing diluted peptide. Plates were wrapped twice in parafilm and incubated at 37°C for 18 to 24 hours. Wells were examined by eye against wells with no bacteria for signs of growth. MICs were reported as the minimum concentration with no observable growth. In cases where triplicate samples differed, the concentration supported by the median of the three replicates was reported.

[1] = test system: Single-donor human red blood cells; experiment: Hemolysis assay; assay type: cell-based
Procedure: Single-donor human red blood cells (Innovative Research, no. IWB3ALS) were washed in PBS and adjusted to a concentration of 1 × 10^9 cells/ml. Each peptide was added individually to 200 μl of cells at a concentration of either 300 μg/ml (SySA library) or 128 μg/ml (SySA-5 optimization library) in a 96-well polypropylene plate (Corning, 3879). PBS alone and 1% Triton X-100 were used for background normalization and 100% hemolysis, respectively. Each reaction was set up in triplicate. Plates were incubated for 3 hours at 37°C. Following incubation, samples were centrifuged at 800g for 20 min, and 100 μl of supernatant was transferred to a flat-bottom 96-well plate (Genesse, 25-104). Percent hemolysis for each sample was determined by normalizing the absorbance at 540 nm for each sample to the average background and dividing by the average absorbance for 1% Triton X-100 (100% hemolysis). Error bars represent 1 SD of triplicate samples.

Ec W3110 MIC MH (Escherichia coli W3110) [µg/mL] | Ec W3110 MIC RPMI (Escherichia coli W3110) [µg/mL] | Compound | %Hemo [1] [%] | hemolysis [1] [%] | other results
> 256 | > 256 | CLTVRVNNRRSGVRVSVQVC (disulfide 1-20 (inferred)) [SySA-43] |  | 0.11 | 
> 256 | > 256 | CVRIRLNNGGSGVKVTVEVC (disulfide 1-20 (inferred)) [SySA-85] |  | 1.81 | 
> 256 | > 256 | CVTVRVNNRGGRLKVSVEVC (disulfide 1-20 (inferred)) [SySA-56] |  | 0.19 | 
> 256 | > 256 | CLRIRVDNRGSGVKVTLEVC (disulfide 1-20 (inferred)) [SySA-57] |  | 0.25 | 
> 256 | > 256 | CLRVRVNNRRSGVRVTLEVC (disulfide 1-20 (inferred)) [SySA-67] |  | 0.70 | 
> 256 | > 256 | CLRVRVNDRGSGVKITVEVC (disulfide 1-20 (inferred)) [SySA-39] |  | 0.28 | 
> 256 | > 256 | CLTVRLNNRGGGVKISVEVC (disulfide 1-20 (inferred)) [SySA-59] |  | 0.32 | 
> 256 | > 256 | CLRIRLNNRGRGVKVSVEVC (disulfide 1-20 (inferred)) [SySA-46] |  | 0.47 | 
> 256 | > 256 | CLTVRVNNRGSGVKVSLEVC (disulfide 1-20 (inferred)) [SySA-54] |  | 1.51 | 

Second part, the compound before the results:

Compound | Ec W3110 MIC MH (Escherichia coli W3110) [µg/mL] | Ec W3110 MIC RPMI (Escherichia coli W3110) [µg/mL] | %Hemo [1] [%] | hemolysis [1] [%] | other results
CC[C@H](C)[C@@H]1NC(=O)[C@H](CCCNC(=N)N)NC(=O)[C@H](C(C)C)NC(=O)[C@@H](N)CSSC[C@@H](C(=O)O)NC(=O)[C@H](C(C)C)NC(=O)[C@H](CCC(N)=O)NC(=O)[C@H](C(C)C)NC(=O)[C@H](CO)NC(=O)[C@H](C(C)C)NC(=O)[C@H](CCCNC(=N)N)NC(=O)[C@H](C(C)C)NC(=O)[C@H](CCCNC(=N)N)NC(=O)[C@H](CCCNC(=N)N)NC(=O)[C@H](CCCNC(=N)N)NC(=O)[C@H](CCCNC(=N)N)NC(=O)[C@H](CC(N)=O)NC(=O)[C@H](CC(N)=O)NC(=O)[C@H](CC(C)C)NC(=O)[C@H](CCCNC(=N)N)NC1=O [SyPA-6] (H-CVRIRLNNRRRRVRVSVQVC-OH; disulfide 1-20) |  |  |  |  | W3110 MIC (Escherichia coli W3110; SyPA peptides, MH, replicate 1): 32 µg/mL; W3110 MIC (Escherichia coli W3110; SyPA peptides, MH, replicate 2): 32 µg/mL; W3110 MIC (Escherichia coli W3110; SyPA peptides, MH, replicate 3): 32 µg/mL; %Hemo ([1]; SyPA peptides, human red blood cells, 3 h 37°C, relative to 1% Triton X-100, peptide concentration not stated for SyPA, n=3): 0.90%
CC(C)C[C@@H]1NC(=O)CNC(=O)[C@H](CCCNC(=N)N)NC(=O)[C@H](CCCNC(=N)N)NC(=O)[C@H](CCCNC(=N)N)NC(=O)[C@H](CC(N)=O)NC(=O)[C@H](CC(N)=O)NC(=O)[C@H](CC(C)C)NC(=O)[C@H](CCCNC(=N)N)NC(=O)[C@H](C(C)C)NC(=O)[C@H]([C@@H](C)O)NC(=O)[C@H](C(C)C)NC(=O)[C@@H](N)CSSC[C@@H](C(=O)O)NC(=O)[C@H](C(C)C)NC(=O)[C@H](CCC(N)=O)NC(=O)[C@H](CC(C)C)NC(=O)[C@H](CO)NC(=O)[C@H](C(C)C)NC(=O)[C@H](CCCNC(=N)N)NC1=O [SyPA-2] (H-CVTVRLNNRRRGLRVSLQVC-OH; disulfide 1-20) |  |  | 3.75 |  | 
CC[C@H](C)[C@@H]1NC(=O)[C@H](CCCNC(=N)N)NC(=O)[C@H](CC(C)C)NC(=O)[C@@H](N)CSSC[C@@H](C(=O)O)NC(=O)[C@H](C(C)C)NC(=O)[C@H](CCC(N)=O)NC(=O)[C@H](CC(C)C)NC(=O)[C@H](CO)NC(=O)[C@H](C(C)C)NC(=O)[C@H](CCCNC(=N)N)NC(=O)[C@H](CC(C)C)NC(=O)CNC(=O)[C@H](CCCNC(=N)N)NC(=O)[C@H](CCCNC(=N)N)NC(=O)[C@H](CCCNC(=N)N)NC(=O)[C@H](CC(=O)O)NC(=O)[C@H](CC(N)=O)NC(=O)[C@H](CC(C)C)NC(=O)[C@H](CCCNC(=N)N)NC1=O [SyPA-5] (H-CLRIRLNDRRRGLRVSLQVC-OH; disulfide 1-20) |  |  | 1.89 |  | 
CC[C@H](C)[C@@H]1NC(=O)[C@H](CC(N)=O)NC(=O)[C@H](C(C)C)NC(=O)[C@H](CCCNC(=N)N)NC(=O)[C@H](C(C)C)NC(=O)[C@H](CCCNC(=N)N)NC(=O)[C@@H](N)CSSC[C@@H](C(=O)O)NC(=O)[C@H](CCC(N)=O)NC(=O)[C@H](CC(C)C)NC(=O)[C@H](CCC(N)=O)NC(=O)[C@H](CC(C)C)NC(=O)[C@H](CCCNC(=N)N)NC(=O)[C@H](CC(C)C)NC(=O)[C@H]([C@@H](C)O)NC(=O)[C@H](CCCNC(=N)N)NC(=O)[C@H](CO)NC(=O)[C@H](CCCNC(=N)N)NC(=O)[C@H](CC(N)=O)NC(=O)[C@H](CC(=O)O)NC1=O [SyPA-7] (H-CRVRVNIDNRSRTLRLQLQC-OH; disulfide 1-20) |  |  | 1.48 |  | W3110 MIC (Escherichia coli W3110; W3110): >128 µg/mL
CC[C@H](C)[C@@H]1NC(=O)[C@H](CCCNC(=N)N)NC(=O)[C@H](CC(C)C)NC(=O)[C@@H](N)CSSC[C@@H](C(=O)O)NC(=O)[C@H](C(C)C)NC(=O)[C@H](CCC(N)=O)NC(=O)[C@H](C(C)C)NC(=O)[C@H](CO)NC(=O)[C@H](C(C)C)NC(=O)[C@H](CCCNC(=N)N)NC(=O)[C@H](CC(C)C)NC(=O)CNC(=O)[C@H](CCCNC(=N)N)NC(=O)[C@H](CCCNC(=N)N)NC(=O)CNC(=O)[C@H](CC(N)=O)NC(=O)[C@H](CC(N)=O)NC(=O)[C@H](CC(C)C)NC(=O)[C@H](CCCNC(=N)N)NC1=O [SyPA-4] (H-CLRIRLNNGRRGLRVSVQVC-OH; disulfide 1-20) |  |  | 1.59 |  | 
CRIRIDIDNRGRTVRLEVQC (disulfide 1-20 (inferred)) [SySA-28] | > 256 | > 256 |  | 0.0423 | 
CRIRIDVNNRSGTLKLQVQC (disulfide 1-20 (inferred)) [SySA-36] | > 256 | > 256 |  | -0.0122 | 
CVTIRVDNRGSRLKISVQVC (disulfide 1-20 (inferred)) [SySA-33] | > 256 | > 256 |  | 0.26 | 
CVTIRLNDGGSGLKISLQVC (disulfide 1-20 (inferred)) [SySA-23] | > 256 | > 256 |  | -0.03 | 
CC(C)C[C@@H]1NC(=O)[C@H](CCCNC(=N)N)NC(=O)[C@H](CCCNC(=N)N)NC(=O)[C@H](CCCNC(=N)N)NC(=O)CNC(=O)[C@H](CC(N)=O)NC(=O)[C@H](CC(N)=O)NC(=O)[C@H](CC(C)C)NC(=O)[C@H](CCCNC(=N)N)NC(=O)[C@H](C(C)C)NC(=O)[C@H](CCCNC(=N)N)NC(=O)[C@H](C(C)C)NC(=O)[C@@H](N)CSSC[C@@H](C(=O)O)NC(=O)[C@H](C(C)C)NC(=O)[C@H](CCC(N)=O)NC(=O)[C@H](CC(C)C)NC(=O)[C@H](CO)NC(=O)[C@H](C(C)C)NC(=O)[C@H](CCCCN)NC1=O [SyPA-1] (H-CVRVRLNNGRRRLKVSLQVC-OH; disulfide 1-20) |  |  | 1.30 |  | 
CC(C)C[C@@H]1NC(=O)[C@H](CCCNC(=N)N)NC(=O)CNC(=O)[C@H](CCCNC(=N)N)NC(=O)[C@H](CCCNC(=N)N)NC(=O)[C@H](CC(N)=O)NC(=O)[C@H](CC(N)=O)NC(=O)[C@H](CC(C)C)NC(=O)[C@H](CCCNC(=N)N)NC(=O)[C@H](C(C)C)NC(=O)[C@H](CCCNC(=N)N)NC(=O)[C@H](CC(C)C)NC(=O)[C@@H](N)CSSC[C@@H](C(=O)O)NC(=O)[C@H](C(C)C)NC(=O)[C@H](CCC(N)=O)NC(=O)[C@H](CC(C)C)NC(=O)[C@H](CO)NC(=O)[C@H](C(C)C)NC(=O)[C@H](CCCNC(=N)N)NC1=O [SyPA-8] (H-CLRVRLNNRRGRLRVSLQVC-OH; disulfide 1-20) |  |  | 2.87 |  | 
